Where two headings read alike, the source gives them in different places.
Tests used:
Format in all cases: cell-based
[1] = tested on: SW480 (primary colon cancer) cells; assay: SRB cytotoxicity assay, SW480; conditions: Homo sapiens, read-out: Cytotoxicity IC50, SW480
Protocol: (§1) The antiproliferative activity was tested on human primary (SW480) and metastatic (SW620) colon cancer, human prostate cancer (PC3), human liver cancer (HepG2), human breast cancer (MDA), human lung cancer (A549), and human immortalized keratinocyte (HaCaT) cell lines obtained from the American Type Culture Collection (ATCC, Rockville, MD, USA). The cells were cultured in EMEM (SW480 and SW620), RPMI 1640 (PC3) or DMEM High Glucose (HepG2, MDA, A549, and HaCaT) with stable glutamine supplemented with 10% heat-inactivated fetal bovine serum (FBS), penicillin (100 U/mL), and streptomycin (100 µg/mL) in 37 °C and 5% CO2/95% air humified incubator. The cells were grown until 80–90% confluence and then were harvested with 0.25% trypsin and used for the experiments. All the reagents for the cell culture were provided by VWR Chemicals.
(§2) Cytotoxicity was tested with the sulforhodamine B (SRB) assay according to the National Cancer Institute protocol with slight modifications. Briefly, cells were seeded on a 96-well plate (5 × 10^3 cells per well). After 24 h incubation, zero-time control cells were fixed with TCA (final concentration 5%) for 1 h at 4 °C. […] The untreated cells were used as the control. After incubation, the cells were fixed with TCA (final concentration 5%) for 1 h at 4 °C, gently washed 4 times with tap water, and left for drying. The dried fixed cells were incubated with SRB solution (0.05% SRB in 1% acetic acid) for 30 min rt, washed four times with 1% acetic acid, and left for drying. The dried cells were dissolved in 10 mM Tris-base solution (pH 10.5) and the absorbance was read at 510 nm.
(§3) The cell viability was presented as a percent of SRB reduction in the treated cells versus that in control cells. The mean absorbance for control cells was assumed as 100%. No-cell control (blank well) absorbance was assumed as 0%, unless the compound was cytostatic, then 0% referred to zero-time control. The IC50 values were calculated using the GraphPad Prism 10.1.2 (324) (USA) software. The most cytotoxic compounds (8 and 20) were selected for further in vitro experiments.

[2] = tested on: SW620 (metastatic colon cancer) cells; assay: SRB cytotoxicity assay, SW620; conditions: Homo sapiens, read-out: Cytotoxicity IC50, SW620
Protocol: as §1, §2, §3

[3] = tested on: PC3 (prostate cancer) cells; assay: SRB cytotoxicity assay, PC3; conditions: Homo sapiens, read-out: Cytotoxicity IC50, PC3
Protocol: as §1, §2, §3

[4] = tested on: HepG2 (liver cancer) cells; assay: SRB cytotoxicity assay, HepG2; conditions: Homo sapiens, read-out: Cytotoxicity IC50, HepG2
Protocol: as §1, §2, §3

[5] = tested on: MDA (breast cancer) cells; assay: SRB cytotoxicity assay, MDA; conditions: Homo sapiens, read-out: Cytotoxicity IC50, MDA
Protocol: as §1, §2, §3

[6] = tested on: A549 (lung cancer) cells; assay: SRB cytotoxicity assay, A549; conditions: Homo sapiens, read-out: Cytotoxicity IC50, A549
Protocol: as §1, §2, §3

[7] = SRB cytotoxicity assay, HaCaT; conditions: human, 48 h culture, mean ± SD, at least three independent experiments, compounds marked * : low solubility, real values might be lower
Protocol: as §1, §2, §3

[8] = tested on: six human cancer cell lines (SW480, SW620, PC3, HepG2, MDA, A549) and HaCaT; assay: SRB cytotoxicity assay, whole panel; conditions: cell line panel
Protocol: The antiproliferative properties of the studied combretastatin derivatives were tested on six human cancer cell lines, including primary colon (SW480), metastatic colon (SW620), prostate (PC3), liver (HepG2), breast (MDA), and lung (A549) cancer cells, and non-tumor human immortalized keratinocyte cell line (HaCaT) using the sulforhodamine B (SRB) assay. […] No selectivity was observed against the tumor cell lines when compared to that against the non-tumor cell line. Nevertheless, these values were much higher than the IC50 of the reference compounds (<0.2 μM).
as §1, §2, §3

[9] = SW480, SRB assay, 48 h culture, mean ± SD, at least three independent experiments, compounds marked * : low solubility, real values might be lower
[10] = SW-620, SRB assay, 48 h culture, mean ± SD, at least three independent experiments, compounds marked * : low solubility, real values might be lower
[11] = SRB assay, 48 h culture, mean ± SD, at least three independent experiments, compounds marked * : low solubility, real values might be lower
[12] = HepG2, SRB assay, 48 h culture, mean ± SD, at least three independent experiments, compounds marked * : low solubility, real values might be lower
[13] = A549, SRB assay, 48 h culture, mean ± SD, at least three independent experiments, compounds marked * : low solubility, real values might be lower
[14] = HaCaT immortalized keratinocyte cells (non-tumor cell line)

SMILES | IC50 [1, 9] [µM] | IC50 [2, 10] [µM] | IC50 [3, 11] [µM] | IC50 [4, 12] [µM] | IC50 [5, 11] [µM] | IC50 [6, 13] [µM] | IC50 at 48 h [7, 14] [µM] | Cytotoxicity (in words) [8] | IC50 ([1]; SW480, 48 h) [µM] | IC50 ([2]; SW-620, 48 h) [µM] | IC50 ([3]; 48 h) [µM] | IC50 ([4]; HepG2, 48 h) [µM] | IC50 ([5]; 48 h) [µM] | IC50 ([6]; A549, 48 h) [µM] | IC50 at 48 h ([7]; non-tumor cell line) [µM]
COc1ccc(/C(=C\c2cc(OC)c(OC)c(OC)c2)C(=O)Nc2ccccc2)cc1Br [Compound 14] | > 100 | > 100 | > 100 | > 100 | > 100 | > 100 | > 100 | – | – | – | – | – | – | – | –
COc1ccc(/C(=C\c2cc(OC)c(OC)c(OC)c2)C(=O)NCc2ccccc2[N+](=O)[O-])cc1Br [Compound 15] | > 100 | > 100 | > 100 | > 100 | > 100 | > 100 | > 100 | – | – | – | – | – | – | – | –
COc1ccc(/C(=C\c2cc(OC)c(OC)c(OC)c2)C(=O)NCc2ccccc2Cl)cc1Br [Compound 16] | > 100 | > 100 | > 100 | > 100 | 99.8 ± 3.9 | 92.8 ± 7.7 | > 100 | – | – | – | – | – | – | – | –
COc1ccc(/C(=C\c2cc(OC)c(OC)c(OC)c2)C(=O)NCc2cccc(Cl)c2)cc1Br [Compound 17] | > 100 | > 100 | > 100 | > 100 | > 100 | > 100 | > 100 | – | – | – | – | – | – | – | –
COc1ccc(/C(=C\c2cc(OC)c(OC)c(OC)c2)C(=O)NCc2ccc(Cl)cc2)cc1Br [Compound 18] | > 100 | > 100 | > 100 | 89.6 ± 24.4 | 66.7 ± 6.4 | 62.2 ± 8.6 | > 100 | – | – | – | – | – | – | – | –
CCCN(CCC)C(=O)/C(=C/c1cc(OC)c(OC)c(OC)c1)c1ccc(OC)c(Br)c1 [Compound 19] | > 100 | > 100 | > 100 | > 100 | > 100 | > 100 | > 100 | did not show any cytotoxicity | – | – | – | – | – | – | –
COc1ccc(/C(=C\c2cc(OC)c(OC)c(OC)c2)C(=O)N2CCOCC2)cc1Br [Compound 21] | > 100 | > 100 | > 100 | > 100 | > 100 | > 100 | > 100 | – | – | – | – | – | – | – | –
COc1ccc(/C(=C\c2cc(OC)c(OC)c(OC)c2)C(=O)N(Cc2ccccc2)Cc2ccccc2)cc1Br [Compound 22] | > 100 | > 100 | > 100 | > 100 | > 100 | > 100 | > 100 | – | – | – | – | – | – | – | –
COc1cc2c(c(OC)c1OC)-c1ccc(OC)c(=O)cc1[C@@H](NC(C)=O)CC2 [colchicine, reference compound] | – | – | – | – | – | – | – | – | 0.166 ± 0.065 | 0.13 ± 0.089 | 0.118 ± 0.047 | 0.107 ± 0.025 | 0.11 ± 0.015 | 0.094 ± 0.009 | 0.104 ± 0.012
COc1cc([C@@H]2c3cc4c(cc3[C@H](O)[C@H]3COC(=O)[C@H]23)OCO4)cc(OC)c1OC [podophyllotoxin, reference compound] | – | – | – | – | – | – | – | – | 0.0444 ± 0.0022 | 0.0292 ± 0.0078 | 0.0129 ± 0.0015 | 0.0258 ± 0.0056 | 0.0293 ± 0.0028 | 0.0247 ± 0.0039 | 0.0316 ± 0.004

From PMC11124394, “Novel Combretastatin A-4 Analogs—Design, Synthesis, and Antiproliferative and Anti-Tubulin Activity” (Molecules, 2024)
